The target of experiment [1] is T1, RIPK3 (Homo sapiens, UniProt Q9Y572).
T1 construct: purchased Reaction Biology Corporation (RBC), Malvern, USA (contract assay service)
Kind of experiment: RIPK3 kinase assay (radiometric HotSpot, Reaction Biology Corporation). It counts as biochemical. As for the experimental part: The assays were performed in Reaction Biology Corporation (RBC), Malvern, USA. Compounds were diluted with DMSO to a final stock concentration of 10 mM and then were tested in a 10-dose IC50 mode with a 3-fold serial dilution starting at […]. All the reactions were carried out at 10 μM ATP and MBP 20 μM as substrates. RIPK3 activity was determined using radiometric HotSpot™ kinase assay protocol and IC50 values were calculated use GraphPad Prism software.

The test system of experiment [2] is Murine L929 cells. Kind of experiment: Necroptosis inhibition assay in L929 cells (mTNFα + zVAD, Sytox Green). In kind it is cell-based. The conditions noted are these: Mus musculus, 10 ng/ml mTNFα and 20 μM zVAD, 6 hours, Sytox Green fluorescence. An outline of the steps: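 Murine L929 cells, treated 48 h after seeding with 10 ng/ml mTNFα plus 20 μM zVAD and compound ([…]), 6 h at 37° C. Necroptosis read by Sytox Green fluorescence (500ex/530em), scaled between 0.1% DMSO and TNFα+zVAD wells; IC50 from inhibition curves.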

The subject of experiment [3] is Human HT-29 cells. Nature of the experiment: Necroptosis inhibition assay in HT-29 cells (hTNFα + zVAD + SMAC mimetic, Sytox Green/Hoechst). Particulars: 10 ng/ml hTNFα, 20 μM zVAD and 100 nM SMAC mimetic, 6 hours, Sytox/Hoechst positive cells, read-out: HT29 necroptosis inhibition IC50. It counts as cell-based. An outline of the steps: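 Cells stimulated 48 h after seeding with 10 ng/ml hTNFα, 20 μM zVAD and 100 nM SMAC mimetic plus compound, 6 h at 37 °C. Sytox Green and Hoechst positive cells counted by imaging; inhibition scaled between DMSO-treated (100%) and stimulated-only (0%) wells, IC50 by curve fitting.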

T1 sequence (Q9Y572 whole entry): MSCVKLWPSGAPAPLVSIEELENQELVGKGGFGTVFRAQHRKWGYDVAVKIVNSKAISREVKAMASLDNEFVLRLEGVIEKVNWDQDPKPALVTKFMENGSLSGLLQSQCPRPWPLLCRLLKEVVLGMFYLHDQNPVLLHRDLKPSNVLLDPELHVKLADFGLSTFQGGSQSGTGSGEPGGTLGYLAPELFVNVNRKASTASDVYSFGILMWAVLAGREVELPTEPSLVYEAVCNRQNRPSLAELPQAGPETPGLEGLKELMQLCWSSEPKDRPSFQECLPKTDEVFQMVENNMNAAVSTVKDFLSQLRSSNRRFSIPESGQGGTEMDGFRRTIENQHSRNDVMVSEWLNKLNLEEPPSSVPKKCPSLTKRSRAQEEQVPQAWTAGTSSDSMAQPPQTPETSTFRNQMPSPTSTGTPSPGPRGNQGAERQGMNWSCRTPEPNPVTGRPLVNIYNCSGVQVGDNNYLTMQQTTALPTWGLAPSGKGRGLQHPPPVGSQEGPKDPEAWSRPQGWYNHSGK

In the case of `Fc1cc(CN2CCCC2)ccc1-c1ccc2nccc(Nc3ccc4scnc4c3)c2c1` [Compound 23, N-(6-(2-fluoro-4-(pyrrolidin-1-ylmethyl)phenyl)quinolin-4-yl)benzo[d]thiazol-5-amine], the IC50 in experiment [1] was found to be 2.21 nM; in experiment [2] it was 275 nM; in experiment [3] it was 302 nM.
`CN1CCCN(Cc2ccc(-c3ccc4nccc(Nc5ccc6scnc6c5)c4c3)c(F)c2)CC1` [Compound 27, N-(6-(2-fluoro-4-((4-methyl-1,4-diazepan-1-yl)methyl)phenyl)quinolin-4-yl)benzo[d]thiazol-5-amine]: the IC50 in experiment [1] is 1.13 nM; in experiment [2], 669 nM; in experiment [3], 168 nM.
In the case of `CN1CCC(c2ccc(-c3ccc4nccc(Nc5ccc6scnc6c5)c4c3)cc2)CC1` [Compound 28, N-(6-(4-(1-methylpiperidin-4-yl)phenyl)quinolin-4-yl)benzo[d]thiazol-5-amine], the results for the IC50 in experiment [1], in experiment [2] and in experiment [3] were 3.47 nM, 2590 nM and greater than 10000 nM, respectively.
For the compound `CN1CCN(Cc2ccc(-c3ccc4c(Nc5ccc6scnc6c5)ccnc4c3)c(F)c2)CC1` [Compound 29, N-(7-(2-fluoro-4-((4-methylpiperazin-1-yl)methyl)phenyl)quinolin-4-yl)benzo[d]thiazol-5-amine], the IC50 in experiment [1] stood at 2.31 nM; in experiment [2] it was 494 nM; in experiment [3], 341 nM.
As to `CN1CCN(Cc2ccc(-c3ccc4nccc(Nc5ccc(Cl)c(Cl)c5)c4c3)c(F)c2)CC1` [Compound 31, N-(3,4-dichlorophenyl)-6-(2-fluoro-4-((4-methylpiperazin-1-yl)methyl)phenyl)quinolin-4-amine], the results for the IC50 in experiment [1], in experiment [2] and in experiment [3] were 2.75 nM, 1660 nM and 523 nM, respectively.
Consider `CN1CCN(C(=O)c2ccc(-c3ccc4c(Nc5ccc6scnc6c5)ccnc4c3)cc2)CC1` [Compound 34, (4-(4-(benzo[d]thiazol-5-ylamino)quinolin-7-yl)phenyl)(4-methylpiperazin-1-yl)methanone], for which the IC50 in experiment [1] amounted to 0.65 nM; in experiment [2] it was 68.5 nM; in experiment [3] it was 119 nM.
Take `CN1CCN(C(=O)c2ccc(-c3ccc4nccc(Nc5ccc6scnc6c5)c4c3)cc2)CC1` [Compound 35, (4-(4-(benzo[d]thiazol-5-ylamino)quinolin-6-yl)phenyl)(4-methylpiperazin-1-yl)methanone]: the IC50 in experiment [1] is 3.97 nM; in experiment [2] it was 818 nM; in experiment [3], 116 nM.
As for `CC(C)(C)N1CCN(Cc2ccc(-c3ccc4nccc(Nc5ccc6scnc6c5)c4c3)c(F)c2)CC1` [Compound 36, N-(6-(4-((4-(tert-butyl)piperazin-1-yl)methyl)-2-fluorophenyl)quinolin-4-yl)benzo[d]thiazol-5-amine], the IC50 worked out at 1.28 nM in experiment [1], 318 nM in experiment [2] and 353 nM in experiment [3].
On the same counts, the results for `CC(C)(C)N1CCN(Cc2ccc(-c3ccc4c(Nc5ccc6scnc6c5)ccnc4c3)c(F)c2)CC1` [Compound 37, N-(7-(4-((4-(tert-butyl)piperazin-1-yl)methyl)-2-fluorophenyl)quinolin-4-yl)benzo[d]thiazol-5-amine] are 1.79 nM, 445 nM and 670 nM.
Regarding `Fc1cc(CN2CCC(F)(F)CC2)ccc1-c1ccc2nccc(Nc3ccc4scnc4c3)c2c1` [Compound 40, N-(6-(4-((4,4-difluoropiperidin-1-yl)methyl)-2-fluorophenyl)quinolin-4-yl)benzo[d]thiazol-5-amine], the IC50 was 18.3 nM in experiment [1], 1060 nM in experiment [2] and 7870 nM in experiment [3].
Consider `Fc1cc(CN2CCNCC2)ccc1-c1ccc2nccc(Nc3ccc4scnc4c3)c2c1` [Compound 41, N-(6-(2-fluoro-4-(piperazin-1-ylmethyl)phenyl)quinolin-4-yl)benzo[d]thiazol-5-amine], for which the IC50 came to 0.133 nM in experiment [1], 365 nM in experiment [2] and 86.8 nM in experiment [3].
`Fc1cc(CN2CCCCC2)ccc1-c1ccc2c(Nc3ccc4scnc4c3)ccnc2c1` [Compound 43, N-(7-(2-fluoro-4-(piperidin-1-ylmethyl)phenyl)quinolin-4-yl)benzo[d]thiazol-5-amine]: the values for the IC50 in experiment [1], in experiment [2] and in experiment [3] were 0.162 nM, 188 nM and 93.9 nM, respectively.
Consider `O=c1ccccn1Cc1ccc(-c2ccc3nccc(Nc4ccc5scnc5c4)c3c2)c(F)c1` [Compound 47, 1-(4-(4-(benzo[d]thiazol-5-ylamino)quinolin-6-yl)-3-fluorobenzyl)pyridin-2(1H)-one], for which the 50% inhibitory concentration (IC50) in experiment [1] came out at 0.86 nM; in experiment [2], 421 nM; in experiment [3], 1020 nM.
Turning to `c1cc(Nc2ccc3scnc3c2)c2ccc(-c3ccc(OCCN4CCCCC4)cc3)cc2n1` [Compound 50, N-(7-(4-(2-(piperidin-1-yl)ethoxy)phenyl)quinolin-4-yl)benzo[d]thiazol-5-amine], the IC50 is 0.102 nM in experiment [1], 320 nM in experiment [2] and 708 nM in experiment [3].
Take `Fc1cc(CN2CC3(CCOCC3)C2)ccc1-c1ccc2nccc(Nc3ccc4scnc4c3)c2c1` [Compound 51, N-(6-(4-(7-oxa-2-azaspiro[3.5]nonan-2-ylmethyl)-2-fluorophenyl)quinolin-4-yl)benzo[d]thiazol-5-amine]: the IC50 in experiment [1] was found to be 1.88 nM; in experiment [2] it was 832 nM; in experiment [3], 1200 nM.
Turning to `Fc1cc(CN2CC3(CCOCC3)C2)ccc1-c1ccc2c(Nc3ccc4scnc4c3)ccnc2c1` [Compound 52, N-(7-(4-(7-oxa-2-azaspiro[3.5]nonan-2-ylmethyl)-2-fluorophenyl)quinolin-4-yl)benzo[d]thiazol-5-amine], the results for the IC50 in experiment [1], in experiment [2] and in experiment [3] were 0.57 nM, 323 nM and 505 nM, respectively.
Regarding `O=C(c1ccc(-c2ccc3nccc(Nc4ccc5scnc5c4)c3c2)c(F)c1)N1CCCCC1` [Compound 53, (4-(4-(benzo[d]thiazol-5-ylamino)quinolin-6-yl)-3-fluorophenyl)(piperidin-1-yl)methanone], the figures for the IC50 in experiment [1], in experiment [2] and in experiment [3] were 0.72 nM, 513 nM and 705 nM, respectively.
For `Fc1cc(CN2CCCC2)ccc1-c1ccc2c(Nc3ccc4scnc4c3)ccnc2c1` [Compound 54, N-(7-(2-fluoro-4-(pyrrolidin-1-ylmethyl)phenyl)quinolin-4-yl)benzo[d]thiazol-5-amine], the figures for the IC50 in experiment [1], in experiment [2] and in experiment [3] were 0.308 nM, 201 nM and 630 nM, respectively.
For the compound `O=C(c1ccc(-c2ccc3c(Nc4ccc5scnc5c4)ccnc3c2)c(F)c1)N1CCCCC1` [Compound 61, (4-(4-(benzo[d]thiazol-5-ylamino)quinolin-7-yl)-3-fluorophenyl)(piperidin-1-yl)methanone], the IC50 stood at 0.029 nM in experiment [1], 93.3 nM in experiment [2] and 94.2 nM in experiment [3].
`O=C(c1ccc(-c2ccc3nccc(Nc4ccc5scnc5c4)c3c2)c(F)c1)N1CCNCC1` [Compound 249, (4-(4-(benzo[d]thiazol-5-ylamino)quinolin-6-yl)-3-fluorophenyl)(piperazin-1-yl)methanone]: the IC50 is 1.75 nM in experiment [1], 1260 nM in experiment [2] and 67.9 nM in experiment [3].
With `O=C1CN(C(=O)c2ccc(-c3ccc4c(Nc5ccc6scnc6c5)ccnc4c3)c(F)c2)CCN1` [Compound 276, 4-(4-(4-(benzo[d]thiazol-5-ylamino)quinolin-7-yl)-3-fluorobenzoyl)piperazin-2-one], the values for the IC50 in experiment [1], in experiment [2] and in experiment [3] were 6.89 nM, 553 nM and 538 nM, respectively.
Turning to `O=C(c1ccc(-c2ccc3c(Nc4ccc5scnc5c4)ccnc3c2)c(F)c1)N1CC2(CNC2)C1` [Compound 284, (4-(4-(benzo[d]thiazol-5-ylamino)quinolin-7-yl)-3-fluorophenyl)(2,6-diazaspiro[3.3]heptan-2-yl)methanone], the IC50 in experiment [1] stood at 1.13 nM; in experiment [2], 960 nM; in experiment [3], 386 nM.
For the compound `O=C(c1ccc(-c2ccc3nccc(Nc4ccc5scnc5c4)c3c2)c(F)c1)N1CC2(CNC2)C1` [Compound 285, (4-(4-(benzo[d]thiazol-5-ylamino)quinolin-6-yl)-3-fluorophenyl)(2,6-diazaspiro[3.3]heptan-2-yl)methanone], the IC50 was 3.14 nM in experiment [1], 2710 nM in experiment [2] and 129 nM in experiment [3].
Take `Fc1cc(CN2CC3(CNC3)C2)ccc1-c1ccc2nccc(Nc3ccc4scnc4c3)c2c1` [Compound 292, N-(6-(4-((2,6-diazaspiro[3.3]heptan-2-yl)methyl)-2-fluorophenyl)quinolin-4-yl)benzo[d]thiazol-5-amine]: the IC50 in experiment [1] came to 3.67 nM; in experiment [2], 1780 nM; in experiment [3], 159 nM.

As a reminder, the IC50 is the concentration that inhibits the measured activity by half.
